Among the data in patent US9315451B2, “Tetracycline compounds” (priority 2009, dated 2016) are responders and ED50 values, retold here.

The assay deals with S. aureus Smith (ATCC 13709). In words: Mouse systemic infection (septicemia) model, S. aureus Smith. The class given is in vivo. The following applies: Staphylococcus aureus, CD-1 female mice; for responders at 3 mg/kg: IV 3 mg/kg one hour post infection, read-out: SA Smith septicemia survival IV (3 mg/kg); for responders at 3 mg/kg / responders at 30 mg/kg: survival at 48 hours; for responders at 30 mg/kg: PO 30 mg/kg one hour post infection, read-out: SA Smith septicemia survival PO (30 mg/kg); for ED50: dose that prevents 50% of the mice from death, 48 hours. On the procedure:
Mouse Systemic Infection Protocol-S. aureus Smith Septicemia
Compounds were screened for antibacterial activity in vivo in a mouse systemic infection (septicemia) model. In the model, CD-1 female mice (18-22 grams) were injected IP with a S. aureus Smith (ATCC 13709) inoculum that results in 0% survival within 24 to 48 hours. The bacterial dose required to achieve this effect was previously established through virulence studies. At one hour post infection, mice received either […] IV or […] PO. Typically, six mice were treated per dose group. Animal survival was assessed and recorded for 48 hours. Percent survival at 48 hours was recorded and PD50 (mg/kg) was determined for each compound tested.

Where [1] appears, read: ATCC13709, IV, read-out: SA Smith septicemia PD50 IV.
Where [2] appears, read: ATCC13709, PO, read-out: SA Smith septicemia PD50 PO.

Structures are written as SMILES. Like-named read-outs stand apart in the source and are kept apart here.

Take `CN(C)[C@@H]1C(O)=C(C(N)=O)C(=O)[C@@]2(O)C(O)=C3C(=O)c4c(O)cc(CN5CC6CCCCC6C5)c(Cl)c4C[C@H]3C[C@@H]12` (stereo partly shown) [Compound S15-13-117]: the responders at 3 mg/kg (ATCC13709, iv, 48 h) is 33%. In addition, for the setting “ATCC13709, po, 48 h”, the responders at 30 mg/kg stood at 20%.
On the same counts, the results for `CN(C)[C@@H]1C(O)=C(C(N)=O)C(=O)[C@@]2(O)C(O)=C3C(=O)c4c(O)cc(NC(=O)CN5CCCC5)cc4C[C@H]3C[C@@H]12` [Compound S21-12-1] are 100% and 33%.
For `CN(C)[C@@H]1C(O)=C(C(N)=O)C(=O)[C@@]2(O)C(O)=C3C(=O)c4c(cc(F)c(CNCC(C)(C)C)c4O)C[C@H]3C[C@@H]12` [Compound S19-8-1], the responders at 3 mg/kg (ATCC13709, iv, 48 h) came to 100%. Besides, where the note is “ATCC13709, po, 48 h”, the responders at 30 mg/kg came out at 100%. Also, the ED50 runs as follows: under setting [1], 0.36 mg/kg; under setting [2], 12.2 mg/kg.
On to `CCN(Cc1cc(O)c2c(c1F)C[C@H]1C[C@H]3[C@H](N(C)C)C(O)=C(C(N)=O)C(=O)[C@@]3(O)C(O)=C1C2=O)C(C)(C)CC` [Compound S2-4-33], for which, for the setting “ATCC13709, iv, 48 h”, the responders at 3 mg/kg came out at 67%. For the same compound, where the note is “ATCC13709, po, 48 h”, the responders at 30 mg/kg was found to be 33%.
Consider `CN(C)[C@@H]1C(O)=C(C(N)=O)C(=O)[C@@]2(O)C(O)=C3C(=O)c4c(O)cc(CN5CCC(C6CC6)CC5)c(F)c4C[C@H]3C[C@@H]12` [Compound S1-14-134], for which the responders at 3 mg/kg (ATCC13709, iv, 48 h) turned out to be 50%. Under “ATCC13709, po, 48 h”, the responders at 30 mg/kg came out at 17%.
On the same counts, the results for `CN(C)[C@@H]1C(O)=C(C(N)=O)C(=O)[C@@]2(O)C(O)=C3C(=O)c4c(O)cc(CNCC(C)(C)C)c(Cl)c4C[C@H]3C[C@@H]12` [Compound S15-13-5] are 50% and 17%.
As to `CN(C)c1c(CN2CCCC2(C)C)cc(O)c2c1C[C@H]1C[C@H]3[C@H](N(C)C)C(O)=C(C(N)=O)C(=O)[C@@]3(O)C(O)=C1C2=O` [Compound S16-10-11], the responders at 3 mg/kg (ATCC13709, iv, 48 h) turned out to be 100%. Where the note is “ATCC13709, po, 48 h”, the responders at 30 mg/kg came to 100%. Besides, under setting [2], the ED50 was determined as 10 mg/kg.
Turning to `CN(Cc1cc(O)c2c(c1F)C[C@H]1C[C@H]3[C@H](N(C)C)C(O)=C(C(N)=O)C(=O)[C@@]3(O)C(O)=C1C2=O)CC(C)(C)C` [Compound S2-4-21], the responders at 3 mg/kg (ATCC13709, iv, 48 h) amounted to 16%. In addition, the responders at 30 mg/kg (ATCC13709, po, 48 h) turned out to be 0%.
For `CN(C)C(=O)C(C)(C)N(C)Cc1cc(O)c2c(c1Cl)C[C@H]1C[C@H]3[C@H](N(C)C)C(O)=C(C(N)=O)C(=O)[C@@]3(O)C(O)=C1C2=O` [Compound S15-13-227], the responders at 3 mg/kg (ATCC13709, iv, 48 h) amounted to 17%. Besides, the responders at 30 mg/kg (ATCC13709, po, 48 h) worked out at 0%.
In the case of `CN(C)c1c(CNC2C3CC4CC(C3)CC2C4)cc(O)c2c1C[C@H]1C[C@H]3[C@H](N(C)C)C(O)=C(C(N)=O)C(=O)[C@@]3(O)C(O)=C1C2=O` (stereo partly shown) [Compound S16-10-18], the responders at 3 mg/kg (ATCC13709, iv, 48 h) was determined as 17%. Further, the responders at 30 mg/kg (ATCC13709, po, 48 h) is 0%.
In the same order, the values of `CN(C)[C@@H]1C(O)=C(C(N)=O)C(=O)[C@@]2(O)C(O)=C3C(=O)c4c(O)cc(CN(C)C5(C6CC6)CC5)c(F)c4C[C@H]3C[C@@H]12` [Compound S2-4-60] are 17% and 33%.
On the same counts, the results for `CCC(C)(C)N(C)Cc1cc(O)c2c(c1OC)C[C@H]1C[C@H]3[C@H](N(C)C)C(O)=C(C(N)=O)C(=O)[C@@]3(O)C(O)=C1C2=O` [Compound S24-9-19] are 100% and 100%.
In the case of `CN(C)[C@@H]1C(O)=C(C(N)=O)C(=O)[C@@]2(O)C(O)=C3C(=O)c4c(O)cc(CN5CCC6(CC5)CC6)c(F)c4C[C@H]3C[C@@H]12` [Compound S1-14-128], the responders at 3 mg/kg (ATCC13709, iv, 48 h) worked out at 100%. The responders at 30 mg/kg (ATCC13709, po, 48 h) worked out at 100%.
Consider `CC(C)N(Cc1cc(O)c2c(c1Cl)C[C@H]1C[C@H]3[C@H](N(C)C)C(O)=C(C(N)=O)C(=O)[C@@]3(O)C(O)=C1C2=O)CC1CC1` [Compound S15-13-215], for which, where the note is “ATCC13709, iv, 48 h”, the responders at 3 mg/kg worked out at 50%. For the same compound, the responders at 30 mg/kg (ATCC13709, po, 48 h) turned out to be 50%.
Take `CN(C)[C@@H]1C(O)=C(C(N)=O)C(=O)[C@@]2(O)C(O)=C3C(=O)c4c(O)cc(CNC56CC7CC(CC(C7)C5)C6)c(F)c4C[C@H]3C[C@@H]12` [Compound S1-14-4]: for the setting “ATCC13709, iv, 48 h”, the responders at 3 mg/kg amounted to 100%. Also, the responders at 30 mg/kg (ATCC13709, po, 48 h) was found to be 0%.
On the same counts, the results for `CCN(Cc1cc(O)c2c(c1F)C[C@H]1C[C@H]3[C@H](N(C)C)C(O)=C(C(N)=O)C(=O)[C@@]3(O)C(O)=C1C2=O)C1(C)CCCC1` [Compound S1-14-73] are 50% and 75%.
Take `CN(C)[C@@H]1C(O)=C(C(N)=O)C(=O)[C@@]2(O)C(O)=C3C(=O)c4c(O)cc(CN5CCCCC56CC6)c(F)c4C[C@H]3C[C@@H]12` [Compound S2-4-11]: the responders at 3 mg/kg (ATCC13709, iv, 48 h) was 0%. The responders at 30 mg/kg (ATCC13709, po, 48 h) amounted to 0%.
As for `CN(C)[C@@H]1C(O)=C(C(N)=O)C(=O)[C@@]2(O)C(O)=C3C(=O)c4c(O)cc(CN5C6CCC5CC6)c(Cl)c4C[C@H]3C[C@@H]12` [Compound S15-13-222], for the setting “ATCC13709”, the responders at 3 mg/kg amounted to 100% and the responders at 30 mg/kg is 100%.
Take `CN(C)[C@@H]1C(O)=C(C(N)=O)C(=O)[C@@]2(O)C(O)=C3C(=O)c4c(O)cc(C(C)(C)N(C)CC5CCCC5)c(F)c4C[C@H]3C[C@@H]12` [Compound S27-9-5]: the responders at 3 mg/kg (ATCC13709, iv, 48 h) came to 83%. Where the note is “ATCC13709, po, 48 h”, the responders at 30 mg/kg is 67%.
On the same counts, the results for `CN(C)c1c(CN2CCCCCC2)cc(O)c2c1C[C@H]1C[C@H]3[C@H](N(C)C)C(O)=C(C(N)=O)C(=O)[C@@]3(O)C(O)=C1C2=O` [Compound S16-10-177] are 100% and 100%.
For the compound `CN(C)[C@@H]1C(O)=C(C(N)=O)C(=O)[C@@]2(O)C(O)=C3C(=O)c4c(O)cc(CN5CCCCC5)c(C(F)(F)F)c4C[C@H]3C[C@@H]12` [Compound S25-11-68], for the setting “ATCC13709, iv, 48 h”, the responders at 3 mg/kg is 50%. Further, the responders at 30 mg/kg (ATCC13709, po, 48 h) turned out to be 83%.
On the same counts, the results for `CC(C)[C@@H](C)N(C)Cc1cc(O)c2c(c1F)C[C@H]1C[C@H]3[C@H](N(C)C)C(O)=C(C(N)=O)C(=O)[C@@]3(O)C(O)=C1C2=O` [Compound S2-4-57] are 50% and 33%.
On the same counts, the results for `CC1CCN(Cc2cc(O)c3c(c2Cl)C[C@H]2C[C@H]4[C@H](N(C)C)C(O)=C(C(N)=O)C(=O)[C@@]4(O)C(O)=C2C3=O)CC1` [Compound S15-13-182] are 33% and 67%.
On the same counts, the results for `COc1c(CN2CCCC2(C)C)cc(O)c2c1C[C@H]1C[C@H]3[C@H](N(C)C)C(O)=C(C(N)=O)C(=O)[C@@]3(O)C(O)=C1C2=O` [Compound S24-9-10] are 100% and 100%.
For the compound `CC(C)CN(C)C(C)(C)c1cc(O)c2c(c1Cl)C[C@H]1C[C@H]3[C@H](N(C)C)C(O)=C(C(N)=O)C(=O)[C@@]3(O)C(O)=C1C2=O` [Compound S27-9-7], under “ATCC13709, iv, 48 h”, the responders at 3 mg/kg was 17%. For the same compound, the responders at 30 mg/kg (ATCC13709, po, 48 h) came to 33%.
Regarding `CN(C)[C@@H]1C(O)=C(C(N)=O)C(=O)[C@@]2(O)C(O)=C3C(=O)c4c(O)cc(CN[C@H]5CC6CCC5C6)c(C(F)(F)F)c4C[C@H]3C[C@@H]12` (stereo partly shown) [Compound S25-11-12], the responders at 3 mg/kg (ATCC13709, iv, 48 h) came to 0%. Also, the responders at 30 mg/kg (ATCC13709, po, 48 h) amounted to 20%.
On the same counts, the results for `CN(C)[C@@H]1C(O)=C(C(N)=O)C(=O)[C@@]2(O)C(O)=C3C(=O)c4c(O)cc(CN5CC[C@H](F)C5)c(Cl)c4C[C@H]3C[C@@H]12` [Compound S15-13-226] are 100% and 83%.
For `CCN(Cc1cc(O)c2c(c1F)C[C@H]1C[C@H]3[C@H](N(C)C)C(O)=C(C(N)=O)C(=O)[C@@]3(O)C(O)=C1C2=O)CC(C)C` [Compound S2-4-50], the ED50 is, setting by setting: under setting [1], 1 mg/kg; under setting [2], 10.1 mg/kg.
For the compound `CCN(Cc1cc(O)c2c(c1F)C[C@H]1C[C@H]3[C@H](N(C)C)C(O)=C(C(N)=O)C(=O)[C@@]3(O)C(O)=C1C2=O)CC1CCCC1` [Compound S2-4-62], the responders at 3 mg/kg (ATCC13709, iv, 48 h) was found to be 17%. Moreover, the responders at 30 mg/kg (ATCC13709, po, 48 h) turned out to be 25%.
On the same counts, the results for `CCC1(CNCc2cc(O)c3c(c2F)C[C@H]2C[C@H]4[C@H](N(C)C)C(O)=C(C(N)=O)C(=O)[C@@]4(O)C(O)=C2C3=O)CCC1` [Compound S1-14-91] are 17% and 60%.
On the same counts, the results for `CN(C)c1c(CN(C)C2(C)CCC2)cc(O)c2c1C[C@H]1C[C@H]3[C@H](N(C)C)C(O)=C(C(N)=O)C(=O)[C@@]3(O)C(O)=C1C2=O` [Compound S16-10-107] are 100% and 100%.
In the same order, the values of `CN(C)[C@@H]1C(O)=C(C(N)=O)C(=O)[C@@]2(O)C(O)=C3C(=O)c4c(O)cc(CNC(C)(C)CC(C)(C)C)c(F)c4C[C@H]3C[C@@H]12` [Compound S2-4-7] are 67% and 17%.
